# Patent US4508648A, “Phosphoric ester of antibiotic OA-6129” (Sanraku-Ocean Co., Ltd., priority 1981, dated 1985)
# Like-named read-outs stand apart in the source and are kept apart here.
# Legend:
# [1] = Relative stability in kidney homogenate of dog; format: in vitro ADME; settings: 37° C., 60 minutes, drug solution 100-300 μg/ml, read-out: Relative stability: drug remaining as a percentage of initial concentration
# Protocol: (§1) *A drug solution (100-300 μg/ml) (0.1 ml) and a kidney homogenate (0.1
# (§2) ml) were allowed to react at 37° C. for 60 minutes and the mixture
# (§3) was immediately heattreated at 100° C. for 15 seconds. After
# (§4) centrifugation, the concentration of the drug remaining in the supernatan
# (§5) solution was bioassayed as a percentage of initial concentration by
# (§6) Comamonas terrigena B996.
# (§7) An overnight culture of Comamonas terrigena B-996 on a nutrient agar slant was suspended in nutrient broth to give a cell suspension of absorbance 0.04 at 610 nm. One percent of the cell suspension in volume was inoculated into molten agar medium containing 0.8% in weight of Kyokuto powdered bouillon (Kyokuto Pharmaceutical Co.) and 1.0% in weight of Bato-agar (Difco Lab.), and 7 ml each of the inoculated agar medium was poured into a 9 cm petri dish to make a Comamonas assay plate.
# [2] = test system: Proteus rettgeri P-6; test: Minimum inhibitory concentration, agar dilution technique; format: cell-based; settings: Providencia rettgeri
# From the text: (§8) Minimum Inhibitory Concentration (M.I.C. in μg/ml)**
# (§9) **Medium heartinfusion agar (Difco Lab.); inoculum size 10^6 cells/ml
# (§10) determined by the agar dilution technique
# [3] = test system: Staphylococcus aureus Russell; test: as above; format: cell-based; settings: heart infusion agar, inoculum 10^6 cells/ml, read-out: Minimum Inhibitory Concentration (M.I.C.)
# From the text: as §8, §9, §10
# [4] = test system: Proteus mirabilis P-6; test: as above; format: cell-based; settings: P6, heart infusion agar, inoculum 10^6 cells/ml, read-out: Minimum Inhibitory Concentration (M.I.C.)
# From the text: as §8, §9, §10
# [5] = test system: Alcaligenes faecalis A1; test: as above; format: cell-based; settings: heart infusion agar, inoculum 10^6 cells/ml, read-out: Minimum Inhibitory Concentration (M.I.C.)
# From the text: as §8, §9, §10
# [6] = test system: Staphylococcus aureus Smith; test: as above; format: cell-based; settings: read-out: Minimum Inhibitory Concentration (M.I.C.)
# From the text: as §8, §9, §10
# [7] = test system: Escherichia coli K-12; test: as above; format: cell-based; settings: K12, heart infusion agar, inoculum 10^6 cells/ml, read-out: Minimum Inhibitory Concentration (M.I.C.)
# From the text: as §8, §9, §10
# [8] = test system: Providencia sp. P-8; test: as above; format: cell-based
# From the text: as §8, §9, §10
# [9] = test system: Enterobacter sp. E-8; test: as above; format: cell-based; settings: SP.E8, heart infusion agar, inoculum 10^6 cells/ml, read-out: Minimum Inhibitory Concentration (M.I.C.)
# From the text: as §8, §9, §10
# [10] = test system: Comamonas terrigena B-996; test: as above; format: cell-based; settings: B996, heart infusion agar, inoculum 10^6 cells/ml, read-out: Minimum Inhibitory Concentration (M.I.C.)
# From the text: as §8, §9, §10
# [11] = test system: Bacillus subtilis ATCC 6633; test: as above; format: cell-based
# From the text: as §8, §9, §10
# [12] = test system: Sarcina lutea; test: as above; format: cell-based; settings: Micrococcus luteus; heart infusion agar; inoculum 10^6 cells/ml; read-out: Minimum Inhibitory Concentration (M.I.C.)
# From the text: as §8, §9, §10
# [13] = test system: Staphylococcus epidermidis; test: as above; format: cell-based; settings: heart infusion agar, inoculum 10^6 cells/ml, read-out: Minimum Inhibitory Concentration (M.I.C.)
# From the text: as §8, §9, §10
# [14] = test system: Staphylococcus aureus 209P; test: as above; format: cell-based; settings: read-out: Minimum Inhibitory Concentration (M.I.C.)
# From the text: as §8, §9, §10
# [15] = Relative stability in phosphate buffer, pH 7.0 (control); format: physicochemical; settings: 37° C., 60 minutes, drug solution 100-300 μg/ml, read-out: Relative stability: drug remaining as a percentage of initial concentration
# Protocol: as §1, §2, §3, §4, §5, §6, §7
# [16] = test system: Pseudomonas aeruginosa IFO 3445; test: Minimum inhibitory concentration, agar dilution technique; format: cell-based; settings: IFO3445, beta-lactam-resistant strain, heart infusion agar, inoculum 10^6 cells/ml, read-out: Minimum Inhibitory Concentration (M.I.C.)
# From the text: as §8
# (§11) *Beta-lactam-resistant strain.
# as §9, §10
# [17] = test system: Escherichia coli RGN823; test: as above; format: cell-based; settings: RGN823, read-out: Minimum Inhibitory Concentration (M.I.C.)
# From the text: as §8, §11, §9, §10
# [18] = test system: Enterobacter aerogenes E-19; test: as above; format: cell-based; settings: Klebsiella aerogenes, E19; beta-lactam-resistant strain; heart infusion agar; inoculum 10^6 cells/ml; read-out: Minimum Inhibitory Concentration (M.I.C.)
# From the text: as §8, §11, §9, §10
# [19] = test system: Serratia marcescens T55; test: as above; format: cell-based; settings: beta-lactam-resistant strain, heart infusion agar, inoculum 10^6 cells/ml, read-out: Minimum Inhibitory Concentration (M.I.C.)
# From the text: as §8, §11, §9, §10
# [20] = test system: Klebsiella pneumoniae K13; test: as above; format: cell-based
# From the text: as §8, §11, §9, §10
# [21] = test system: Serratia marcescens S-18; test: as above; format: cell-based
# From the text: as §8, §11, §9, §10
# [22] = test system: Citrobacter freundii GN346; test: as above; format: cell-based; settings: beta-lactam-resistant strain, heart infusion agar, inoculum 10^6 cells/ml, read-out: Minimum Inhibitory Concentration (M.I.C.)
# From the text: as §8, §11, §9, §10
# [23] = test system: Proteus vulgaris GN76; test: as above; format: cell-based; settings: beta-lactam-resistant strain, heart infusion agar, inoculum 10^6 cells/ml, read-out: Minimum Inhibitory Concentration (M.I.C.)
# From the text: as §8, §11, §9, §10
# [24] = test system: Enterobacter cloacae 45; test: as above; format: cell-based; settings: beta-lactam-resistant strain, heart infusion agar, inoculum 10^6 cells/ml, read-out: Minimum Inhibitory Concentration (M.I.C.)
# From the text: as §8, §11, §9, §10
# [25] = test system: Pseudomonas aeruginosa NCTC 10490; test: as above; format: cell-based; settings: NCTC10490, beta-lactam-resistant strain, heart infusion agar, inoculum 10^6 cells/ml, read-out: Minimum Inhibitory Concentration (M.I.C.)
# From the text: as §8, §11, §9, §10
# [26] = test system: Proteus sp. P-22; test: as above; format: cell-based; settings: beta-lactam-resistant strain; heart infusion agar; inoculum 10^6 cells/ml; read-out: Minimum Inhibitory Concentration (M.I.C.)
# From the text: as §8, §11, §9, §10
# [27] = Relative stability in kidney homogenate of man; format: in vitro ADME; settings: human (man) kidney homogenate; 37° C., 60 minutes; drug solution 100-300 μg/ml; read-out: Relative stability: drug remaining as a percentage of initial concentration
# Protocol: as §1, §2, §3, §4, §5, §6, §7
# [28] = Relative stability in kidney homogenate of mouse; format: in vitro ADME; settings: 37° C., 60 minutes, drug solution 100-300 μg/ml, read-out: Relative stability: drug remaining as a percentage of initial concentration
# Protocol: as §1, §2, §3, §4, §5, §6, §7
# [29] = P6, heart infusion agar, inoculum 10^6 cells/ml, read-out: Minimum Inhibitory Concentration (M.I.C.)
# [30] = heart infusion agar, inoculum 10^6 cells/ml
# [31] = ATCC6633, heart infusion agar, inoculum 10^6 cells/ml, read-out: Minimum Inhibitory Concentration (M.I.C.)
# [32] = K13, beta-lactam-resistant strain, heart infusion agar, inoculum 10^6 cells/ml, read-out: Minimum Inhibitory Concentration (M.I.C.)
# [33] = S18, beta-lactam-resistant strain, heart infusion agar, inoculum 10^6 cells/ml, read-out: Minimum Inhibitory Concentration (M.I.C.)
# [34] = SP.P8, heart infusion agar, inoculum 10^6 cells/ml, read-out: Minimum Inhibitory Concentration (M.I.C.)
SMILES,remaining at 1 h [1] [%],MIC [3] [µg/mL],MIC [4] [µg/mL],MIC [5] [µg/mL],MIC [7] [µg/mL],MIC [9] [µg/mL],MIC [10] [µg/mL],MIC [12] [µg/mL],MIC [13] [µg/mL],remaining at 1 h [15] [%],MIC [16] [µg/mL],MIC [17] [µg/mL],MIC [18] [µg/mL],MIC [19] [µg/mL],MIC [22] [µg/mL],MIC [23] [µg/mL],MIC [24] [µg/mL],MIC [25] [µg/mL],MIC [26] [µg/mL],remaining at 1 h [27] [%],also measured
CCC1C(=O)N2C(C(=O)O)=C(SCCNC(=O)CCNC(=O)C(O)C(C)(C)CO)CC12 (stereo not drawn) [Antibiotic OA-6129A],25,0.78,50,1.56,12.5,12.5,0.05,6.25,1.56,100,> 100,12.5,25,100,50,100,50,> 100,100,57,"MIC [2, 29]: 25 µg/mL; MIC [6, 30]: 1.56 µg/mL; MIC ([8]; SP.P8, read-out: Minimum Inhibitory Concentration (M.I.C.)): 12.5 µg/mL; MIC [11, 31]: 0.39 µg/mL; MIC [14, 30]: 0.78 µg/mL; MIC [20, 32]: 50 µg/mL; MIC [21, 33]: 100 µg/mL; remaining at 1 h [28]: 7%"
CCC1C(=O)N2C(C(=O)O)=C(SCCNC(=O)CCNC(=O)C(O)C(C)(C)COP(=O)(O)O)CC12 (stereo not drawn) [Phosphoric ester of antibiotic OA-6129A],18,6.25,25,1.56,3.13,3.13,0.05,6.25,6.25,114,> 25,3.13,12.5,> 25,> 25,25,25,> 25,25,96,"MIC [2, 29]: 12.5 µg/mL; MIC [6]: 3.13 µg/mL; MIC [8, 34]: 6.25 µg/mL; MIC ([11]; ATCC6633, read-out: Minimum Inhibitory Concentration (M.I.C.)): 3.13 µg/mL; MIC [14, 30]: 1.56 µg/mL; MIC [20, 32]: 25 µg/mL; MIC [21, 33]: 25 µg/mL; remaining at 1 h [28]: 47%"
CC(O)C1C(=O)N2C(C(=O)O)=C(SCCNC(=O)CCNC(=O)C(O)C(C)(C)COP(=O)(O)O)CC12 (stereo not drawn) [Phosphoric ester of antibiotic OA-6129B],29,> 25,25,6.25,12.5,12.5,0.39,> 25,> 25,100,> 25,12.5,25,25,> 25,25,> 25,> 25,25,72,"MIC ([2]; P6, read-out: Minimum Inhibitory Concentration (M.I.C.)): 12.5 µg/mL; MIC [6, 30]: > 25 µg/mL; MIC [8, 34]: 6.25 µg/mL; MIC [11, 31]: 25 µg/mL; MIC [14]: 12.5 µg/mL; MIC ([20]; K13, read-out: Minimum Inhibitory Concentration (M.I.C.)): 12.5 µg/mL; MIC ([21]; S18, read-out: Minimum Inhibitory Concentration (M.I.C.)): 12.5 µg/mL; remaining at 1 h [28]: 42%"
